Two compounds from patent US7247734B2 (Vernalis (Cambridge) Limited, priority 2001, dated 2007) can be followed below.

The subject of assay [1] is HCT116 human colon tumour cells. Kind of assay: 96 h growth inhibition assay (SRB), HCT116. Format: cell-based. Conditions: Homo sapiens, HCT-116; HCT116, 96 h. The procedure: (§1) The growth inhibition assay employed was based on that described previously (Kelland et al., 1993). HCT116 and HT29 human colon tumour cells (American Tissue Culture Collection) were seeded into 96-well tissue culture plates (approximately 1600–2000 cells per well) and allowed to attach for 36 hours. Eight wells were treated with a single concentration from a range of compound concentrations and incubated for 96 hours. Cells were fixed using ice cold 10% trichloroacetic acid (TCA). Plates were then washed five times with water, air dried, and stained with 0.4% sulphorhodamine B (SRB) in 1% acetic acid for 10 minutes. The SRB stain was solubilised in 10 mM Tris-HCl and the absorbance measured at 540 nm using a Titertek Multiscan MCC/340 MKII plate reader (Flow Laboratories, IEC, Basingstoke, N.H.). The absorbance values correspond to total protein content and are used as a measure of cell growth.

Assay [2] concerns HT29 human colon tumour cells. The experiment in a line: 96 h growth inhibition assay (SRB), HT29. The class given is cell-based. The settings on record: Homo sapiens, HT-29; HT29, 96 h. The procedure:
as §1

For assay [3], the system named is HSP70 and client protein (CDK4) expression in HT29 cells. The experiment in a line: Western blotting of HSP70 and CDK4 in HT29 cells. The settings on record: 24 hours, various concentrations. The class given is cell-based, human. As to the method: The cellular effects of HSP90 inhibitors can be measured using a number of molecular markers. As already mentioned, HSP90 inhibition leads to the depletion of several important cellular signalling proteins. […] Depletion is normally observed by 6 h, with maximum depletion occurring at 24 h. As well as RAF-1, depletion of several other HSP90 client proteins can be measured by immunoblotting e.g., CDK4, ERBB2. However, it is important to note that some of these proteins are cell line specific e.g., ERBB2 is expressed mainly in breast, thyroid, kidney and some ovarian tumour cell lines. Another very important marker of HSP90 inhibition is heat shock protein 70 (HSP70). A HSF-1 (heatshock factor 1) dependent increase in HSP70 levels has been reported by us and other groups (see, e.g., Whitesell et al., 1994; Clarke et al., 2000) and this effect can serve as a positive indicator of HSP90 inhibitor action. The immunoblotting method described is based on standard techniques but is described in detail for ease of reference.
Prepare as required and store at −20° C. • (4) Bicinchoninic acid (BCA) protein assay reagents (PerBio Science UK, Ltd., Chester, UK). • (5) Casein blocking buffer (0.5% casein, 0.02% thimerosal, in PBS). Store at 4° C. for up to 2 weeks. • (6) Wash buffer (phosphate buffered saline, PBS) containing 0.05% Tween 20). • (7) Tris-glycine gradient polyacrylamide precast gels (4–20%) (1 mm thick) (Novex, InVitrogen, Groningen, NL). • (8) Nitro-cellulose membrane (0.2 μm pore size) (InVitrogen, Groningen, NL). • (9) Ponceau Red stain (2% w/v in 30% TCA/30% […], Sigma Aldrich Ltd., Pool, UK). • (10) Enhanced chemiluminescence (SuperSignal) reagents (PerBio Science UK, Ltd., Chester, UK). • (11) Photographic film (Hyperfilm ECL, Amersham Pharmacia Biotech, Little Chalfont, Bucks, UK). Method
The following protocol was used: • (1) Lyse cells (approx 4×10^6) in 100 μl lysis buffer for 30 minutes on ice. When adding the lysis buffer, shear cells by pipetting up and down using a Gilson P200 pipette. • (2) Spin lysates for 10 min at 13,000 rpm at 4° C., retrieve supernatant and store at −70° C. • (3) Determine protein concentration using BCA protein assay reagents. • (4) Load samples of cell lysates (50 μg protein/lane) onto gel and separate proteins by SDS-polyacrylamide gel electrophoresis (SDS-PAGE) using a 4–20% Tris-glycine gel. • (5) Transfer proteins to nitrocellulose membrane using optimum conditions for the equipment available. For example, 150 mA for 2 h using the Mighty Small transfer system (Hoeffer TE22 Mini Tank Transphor Unit, Amersham Pharmacia Biotech, Little Chalfont, Bucks, UK). […]
Comments • (1) The protein bands are normally evaluated visually. […]

In the case of `Cc1[nH]nc(-c2ccc(O)cc2O)c1-c1ccc2c(c1)OCCO2` [CCT018157], the results for the concentration for half-maximal inhibition (IC50) in assay [1] and in assay [2] were 26 µM and 14 µM, respectively.
As to `CCc1cc(-c2n[nH]c(C)c2-c2ccc3c(c2)OCCO3)c(O)cc1O` [CCT018159, 4-[4-(2,3-Dihydro-benzo[1,4]dioxin-6-yl)-5-methyl-1H-pyrazol-3-yl]-6-ethyl-benzene-1,3-diol], in assay [3], the “CDK4 client protein expression (immunoblot)” value is reported as “depleted” and the “HSP70 expression (immunoblot)” value is listed as “elevated HSP70 expression”. In addition, the half-inhibitory concentration (IC50) in assay [1] is 4.5 µM. The 50% inhibitory concentration (IC50) in assay [2] amounted to 13.5 µM.
